Measured values taken from paper PMC10396955, “2-Oxabicyclo[2.1.1]hexanes as saturated bioisosteres of the ortho-substituted phenyl ring” (Nature Chemistry, 2023).
In brackets after ≈: the same amount, converted by molar mass.

System: not listed separately
Experiment: Kinetic solubility in phosphate-buffered saline, pH 7.4
Type: physicochemical
Conditions: phosphate-buffered saline, 25 °C, pH 7.4, aqueous buffer, kinetic from dmso stock, Table S1; incubation 1; read-out: PBS solubility, pH 7.4, Incubation 1
Experimental: Analysis of Aqueous Solubility […]
compound (Ondansetron) were assessed for kinetic solubility in phosphate-buffered saline, pH […]
Phosphate buffered saline, pH 7.4 (Sigma-Aldrich, USA; Cat #P3813) […]
MultiScreen HTS 96 Well Filter Plates (Millipore, Ireland; Cat # MSGVS2210) […]
Matrix Multichannel Electronic Pipette 2-125 µL, 5-250 µL, 15-1250 µL (Thermo Scientific, […]
Vacuum pump (Millipore, USA; Model # XX5500000)
The measurements were performed using SpectraMax Plus reader in UV-Vis mode. Acquisition and analysis of the data were performed using SoftMax Pro v.5.4 (Molecular Devices) and Excel […]
Kinetic solubility assay was performed according to the Enamine’s aqueous solubility SOP.
Briefly, using a 20 mM stock solution of the compound in 100% DMSO dilutions were prepared to a theoretical concentration of 400 μM in duplicates in phosphate-buffered saline pH 7.4 […]
for two hours and then filtered through HTS filter plates using a vacuum manifold. The filtrates of test compounds were diluted 2-fold with acetonitrile with 2% DMSO before measuring.
In parallel, compound dilutions in acetonitrile/PBS (1:1) were prepared to theoretical […]
DMSO to generate calibration curves. Ondansetron was used as reference compound to control proper assay performance. 200 μl of each sample was transferred to 96-well plate and measured in 200-550 nm range with 5 nm step.
The concentrations of compounds in PBS filtrate are calculated using a dedicated Microsoft Excel calculation script. Proper absorbance wavelengths for calculations are selected for each compound manually based on absorbance maximums (absolute absorbance unit values for the minimum and maximum concentration points within 0 – 3 OD range). Each of the final datasets is additionally visually evaluated by the operator and goodness of fit (R2) is calculated for each calibration curve. The effective range of this assay is approximately 2-400 μM and the […]

Question: With `O=C(O)[C@@H]1[C@@H]2CC[C@@]1(C(=O)Nc1ccc(S(=O)(=O)Nc3nccs3)cc1)C2` (relative stereo) [Compound 32] as the compound, how does the solubility at 2 h read?
Answer: Its solubility at 2 h is 151 µM (≈ 61.5 µg/mL).

Same assay, conditions: phosphate-buffered saline, 25 °C, pH 7.4, aqueous buffer, kinetic from dmso stock, Table S1; incubation 2; read-out: PBS solubility, pH 7.4, Incubation 2

Question: For `O=C(O)[C@@H]1[C@@H]2CC[C@@]1(C(=O)Nc1ccc(S(=O)(=O)Nc3nccs3)cc1)C2` (relative stereo) [Compound 32], which solubility at 2 h is on record?
Answer: The solubility at 2 h was 164 µM (≈ 66.8 µg/mL).

Same assay, conditions: phosphate-buffered saline, 25 °C, pH 7.4, aqueous buffer, kinetic from dmso stock, Table S1; mean of 2 incubations; 25 °C, 2 h, 2% DMSO; effective range approx. 2-400 μM; read-out: PBS solubility, pH 7.4, Mean

Question: For `O=C(O)[C@@H]1[C@@H]2CC[C@@]1(C(=O)Nc1ccc(S(=O)(=O)Nc3nccs3)cc1)C2` (relative stereo) [Compound 32], which solubility at 2 h is on record?
Answer: Its solubility at 2 h is 158 µM (≈ 64.4 µg/mL).

Same assay, conditions: phosphate-buffered saline, 25 °C, pH 7.4, aqueous buffer, kinetic from dmso stock, experimental kinetic solubility in phosphate-buffered saline at pH 7.4; Fig. 3; read-out: Solubility

Question: Which solubility at 2 h does the source give for `O=C(O)[C@@H]1[C@@H]2CC[C@@]1(C(=O)Nc1ccc(S(=O)(=O)Nc3nccs3)cc1)C2` (relative stereo) [Compound 32] here?
Answer: Its solubility at 2 h is 101 µM (≈ 41.2 µg/mL).

System: human liver microsomes
Experiment: Metabolic stability in human liver microsomes
Type: in vitro ADME
Conditions: human liver microsomes
Experimental: (§1) The data acquisition and system control was performed using Analyst 1.6.3 software from AB Sciex. Methods Microsomal incubations were carried out in 96-well plates in 5 aliquots of 30 μL each (one for each time point). […] In the control reactions the NADPH-cofactor system was substituted with phosphate buffer. […] Each reaction was performed in duplicates. Five time points over 40 minutes were analyzed. The reactions were stopped by adding 4 volumes of methanol containing internal standard to incubation aliquots, followed by protein sedimentation by centrifuging at 5500 rpm for 4 minutes. […]. Supernatants were analyzed using the HPLC system coupled with tandem mass spectrometer. […] In some cases, the last time point is excluded from the calculations to ensure acceptable logarithmic linearity of decay.

Question: With `O=C(O)[C@@H]1[C@@H]2CC[C@@]1(C(=O)Nc1ccc(S(=O)(=O)Nc3nccs3)cc1)C2` (relative stereo) [Compound 32] as the compound, how does the “metabolic stability (in words)” value read?
Answer: The value was “metabolically stable”.

System: not listed separately
Experiment: Metabolic stability in human liver microsomes
Type: in vitro ADME
Conditions: both sexes, human, liver microsomes, pH 7.4, human liver microsomes, 2 μM, 37 °C, with NADPH; 7 min
Experimental: as §1

Question: With `O=C(O)[C@@H]1[C@@H]2CC[C@@]1(C(=O)Nc1ccc(S(=O)(=O)Nc3nccs3)cc1)C2` (relative stereo) [Compound 32] as the compound, how does the remaining at […], 2 µM read?
Answer: The remaining at […], 2 µM was 97%.

Same assay, conditions: both sexes, human, liver microsomes, pH 7.4, human liver microsomes, 2 μM, 37 °C, with NADPH; 15 min

Question: With `O=C(O)[C@@H]1[C@@H]2CC[C@@]1(C(=O)Nc1ccc(S(=O)(=O)Nc3nccs3)cc1)C2` (relative stereo) [Compound 32] as the compound, how does the remaining at […], 2 µM read?
Answer: Its remaining at […], 2 µM is 97%.

Same assay, conditions: both sexes, human, liver microsomes, pH 7.4, human liver microsomes, 2 μM, 37 °C, with NADPH; 25 min; read-out: % Remaining, Mean of 2

Question: Which remaining at 25 min, 2 µM does the source give for `O=C(O)[C@@H]1[C@@H]2CC[C@@]1(C(=O)Nc1ccc(S(=O)(=O)Nc3nccs3)cc1)C2` (relative stereo) [Compound 32] here?
Answer: Its remaining at 25 min, 2 µM is 99%.

Same assay, conditions: both sexes, human, liver microsomes, pH 7.4, human liver microsomes, 2 μM, 37 °C, with NADPH; 40 min; read-out: % Remaining, Mean of 2

Question: With `O=C(O)[C@@H]1[C@@H]2CC[C@@]1(C(=O)Nc1ccc(S(=O)(=O)Nc3nccs3)cc1)C2` (relative stereo) [Compound 32] as the compound, how does the remaining at 40 min, 2 µM read?
Answer: Its remaining at 40 min, 2 µM is 100%.

Same assay, conditions: both sexes, pH 7.4; human liver microsomes, no NADPH cofactor; 40 min; ** instability partially or completely not determined by CYP450 activity; read-out: % Remaining without cofactor, Mean of 2

Question: Which remaining at 40 min, 2 µM does the source give for `O=C(O)[C@@H]1[C@@H]2CC[C@@]1(C(=O)Nc1ccc(S(=O)(=O)Nc3nccs3)cc1)C2` (relative stereo) [Compound 32] here?
Answer: The remaining at 40 min, 2 µM was 89%.

System: not listed separately
Experiment: physchem
Type: physicochemical
Conditions: Table S2; n-octanol/PBS pH 7.4; incubation 1
Experimental: Determination of Distribution Coefficient (LogD, pH 7.4) […]
n-octanol – phosphate buffered saline (PBS), pH 7.4. Distribution coefficient (or LogD) is a […]
Phosphate buffered saline, tablet (Sigma-Aldrich, USA; Cat # P4417)
Acetic acid (Enamine, Ukraine.)
DMSO stock solutions of the test compounds 10mM
Gradient HPLC system (Shimadzu, Japan)
MTR22 Multi Mix Rotator (UNICO, USA)
Laboratory Centrifuge, Sigma 4-15C, Qiagen (SIGMA GmbH, Germany) […]
allowed to mix in a rotator for 1 h at 30 rpm. Phase separation was assured by centrifugation for […]
dilution. The samples (both phases) were analyzed using a HPLC system coupled with a tandem mass spectrometer. Mebendazole was used as a reference compound. […]
where: SO – peak area of the analyte in octanol phase
S P – peak area of the analyte in PBS buffer do – dilution coefficient for octanol phase dp – dilution coefficient for aqueous phase

Question: Which “D (partition ratio), incubation 1” value does the source give for `O=C(O)[C@@H]1[C@@H]2CC[C@@]1(C(=O)Nc1ccc(S(=O)(=O)Nc3nccs3)cc1)C2` (relative stereo) [Compound 32] here?
Answer: Its value is 8.13E-02.

Same assay, conditions: Table S2; n-octanol/PBS pH 7.4; incubation 2

Question: Which “D (partition ratio), incubation 2” value does the source give for `O=C(O)[C@@H]1[C@@H]2CC[C@@]1(C(=O)Nc1ccc(S(=O)(=O)Nc3nccs3)cc1)C2` (relative stereo) [Compound 32] here?
Answer: Its value is 3.23E-02.

Same assay, conditions: Table S2; n-octanol/PBS pH 7.4; incubation 3

Question: For `O=C(O)[C@@H]1[C@@H]2CC[C@@]1(C(=O)Nc1ccc(S(=O)(=O)Nc3nccs3)cc1)C2` (relative stereo) [Compound 32], which “D (partition ratio), incubation 3” value is on record?
Answer: The value was 2.75E-02.

Same assay, conditions: pH 7.4, LogD, pH 7.4 (mean)

Question: For `O=C(O)[C@@H]1[C@@H]2CC[C@@]1(C(=O)Nc1ccc(S(=O)(=O)Nc3nccs3)cc1)C2` (relative stereo) [Compound 32], which logD at 1 h is on record?
Answer: The logD at 1 h was < 1.

Same assay, conditions: pH 7.4, LogD, pH 7.4, incubation 1

Question: Which logD at 1 h does the source give for `O=C(O)[C@@H]1[C@@H]2CC[C@@]1(C(=O)Nc1ccc(S(=O)(=O)Nc3nccs3)cc1)C2` (relative stereo) [Compound 32] here?
Answer: Its logD at 1 h is < 1.

Same assay, conditions: pH 7.4, LogD, pH 7.4, incubation 2

Question: For `O=C(O)[C@@H]1[C@@H]2CC[C@@]1(C(=O)Nc1ccc(S(=O)(=O)Nc3nccs3)cc1)C2` (relative stereo) [Compound 32], which logD at 1 h is on record?
Answer: The logD at 1 h was < 1.

Same assay, conditions: pH 7.4, LogD, pH 7.4, incubation 3

Question: With `O=C(O)[C@@H]1[C@@H]2CC[C@@]1(C(=O)Nc1ccc(S(=O)(=O)Nc3nccs3)cc1)C2` (relative stereo) [Compound 32] as the compound, how does the logD at 1 h read?
Answer: The logD at 1 h was < 1.

Same assay, conditions: pH 7.4, logD (7.4)

Question: Which logD at 1 h does the source give for `O=C(O)[C@@H]1[C@@H]2CC[C@@]1(C(=O)Nc1ccc(S(=O)(=O)Nc3nccs3)cc1)C2` (relative stereo) [Compound 32] here?
Answer: Its logD at 1 h is < 1.
